Test results as given in ChEMBL document CHEMBL1136409, “Design of novel N-(2,4-dioxo-1,2,3,4-tetrahydro-thieno[3,2-d]pyrimidin-7-yl)-guanidines as thymidine phosphorylase inhibitors, and flexible docking to a homology model” (Bioorg Med Chem Lett, 2003).

Target: T1, Thymidine phosphorylase (Homo sapiens, UniProt P19971)
T1 sequence (P19971 whole entry): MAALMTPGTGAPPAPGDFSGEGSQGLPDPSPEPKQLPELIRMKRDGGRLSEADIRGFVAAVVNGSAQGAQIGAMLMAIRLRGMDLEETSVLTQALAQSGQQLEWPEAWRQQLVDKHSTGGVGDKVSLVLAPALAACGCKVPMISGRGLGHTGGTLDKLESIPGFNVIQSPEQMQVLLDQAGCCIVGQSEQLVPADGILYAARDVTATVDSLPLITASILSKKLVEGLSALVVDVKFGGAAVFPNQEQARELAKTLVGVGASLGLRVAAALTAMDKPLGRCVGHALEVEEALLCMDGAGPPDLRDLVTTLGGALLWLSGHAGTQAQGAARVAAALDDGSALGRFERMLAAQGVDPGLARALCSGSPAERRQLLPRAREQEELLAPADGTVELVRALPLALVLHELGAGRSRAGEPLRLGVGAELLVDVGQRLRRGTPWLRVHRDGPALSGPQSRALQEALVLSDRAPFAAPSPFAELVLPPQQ
Assay: Binding affinity towards recombinant thymidine phosphorylase TP

Ki [µM] | Compound
> 2400 | N=C(N)Nc1cc2[nH]c(=O)[nH]c(=O)c2s1
> 300 | Nc1cc2[nH]c(=O)[nH]c(=O)c2s1
> 600 | Nc1csc2c(=O)[nH]c(=O)[nH]c12
